Tests used:
MCF-7 cells = test: Breast Cancer Cell Viability Assay (MCF-7, CellTiter-Glo); assay type: cell-based; conditions: 5 days' compound exposure; for IC50: Homo sapiens, MCF7, 120 h
In short: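 MCF-7 cells, 320 per well in RPMI with 10% FBS and 20 mM HEPES, adhered overnight, then exposed 5 days to an eleven-point semilog dilution (final 0.3-0.000003 μM). CellTiter-Glo luminescence read; % viability = (sample − cell-free background)/(untreated − background) × 100.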

ER-α = molecular target: T1, ER-α (Homo sapiens, UniProt P03372); test: Breast Cancer Cell ER-α In Cell Western Assay (SP1); assay type: cell-based; conditions: MCF-7 cells, SP1 antibody, 4 or 24 hr post compound addition; for Emax: MCF7, read-out: ER-α In Cell Western Assay (SP1) Max Response; for DC50: read-out: ER-α In Cell Western Assay (SP1) IC50
T1 sequence (P03372 1-595): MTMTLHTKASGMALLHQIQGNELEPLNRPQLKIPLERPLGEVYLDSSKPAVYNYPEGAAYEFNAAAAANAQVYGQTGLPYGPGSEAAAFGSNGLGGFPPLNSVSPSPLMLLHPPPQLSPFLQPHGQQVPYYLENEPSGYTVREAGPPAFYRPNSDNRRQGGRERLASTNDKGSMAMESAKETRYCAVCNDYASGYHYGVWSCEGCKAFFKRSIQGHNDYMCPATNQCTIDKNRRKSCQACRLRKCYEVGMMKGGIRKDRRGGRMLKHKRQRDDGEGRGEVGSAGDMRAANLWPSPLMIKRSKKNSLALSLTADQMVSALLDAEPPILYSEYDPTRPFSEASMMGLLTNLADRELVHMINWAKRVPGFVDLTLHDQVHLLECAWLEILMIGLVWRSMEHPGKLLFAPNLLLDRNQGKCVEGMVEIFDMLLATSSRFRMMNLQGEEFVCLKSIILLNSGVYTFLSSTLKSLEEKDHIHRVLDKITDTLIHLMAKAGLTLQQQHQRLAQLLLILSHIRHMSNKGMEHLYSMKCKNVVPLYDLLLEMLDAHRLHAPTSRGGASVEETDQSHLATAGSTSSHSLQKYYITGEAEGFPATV
In short: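 ER-α protein levels measured by in-cell western with SP1 antibody, ratioed to DRAQ5 DNA signal and given as percent of untreated controls. Compounds added at 0.3–0.000003 μM final (eleven semilog points) to adherent MCF-7 cells in stripped serum; exposure 4 or 24 h before fixation.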

Row | Structure (SMILES) | IC50 (MCF-7 cells) | Emax (ER-α) | DC50 (ER-α) | MCF7 Viability Assay Max Response (MCF-7 cells)
1 | CC/C(=C(/c1ccc(/C=C/C(=O)O)cc1)c1ccc2[nH]ncc2c1)c1ccc(C(F)(F)F)cc1C#N [Compound 139, (E)-3-(4-((E)-2-(2-Cyano-4-(trifluoromethyl)phenyl)-1-(1H-indazol-5-yl)but-1-en-1-yl)phenyl)acrylic acid] | ≤ 100 nM | ≥ 40% | ≤ 100 nM | ++ (++ = a single % value ≧ 40%)
2 | CC/C(=C(/c1ccc(/C=C/C(=O)O)cc1)c1ccc2[nH]ncc2c1)c1ccc(C#N)cc1Cl [Compound 140, (E)-3-(4-((E)-2-(2-Chloro-4-cyanophenyl)-1-(1H-indazol-5-yl)but-1-en-1-yl)phenyl)acrylic acid] | ≤ 100 nM | ≥ 40% |  | ++ (++ = a single % value ≧ 40%)
3 | CC/C(=C(/c1ccc(/C=C/C(=O)O)cc1)c1ccc2[nH]ncc2c1)c1cccc(C#N)c1C [Compound 141, (E)-3-(4-((E)-2-(3-Cyano-2-methylphenyl)-1-(1H-indazol-5-yl)but-1-en-1-yl)phenyl)acrylic acid] | > 100 nM | ≥ 40% | ≤ 100 nM | ++ (++ = a single % value ≧ 40%)
4 | CC/C(=C(/c1ccc(/C=C/C(=O)O)cc1)c1ccc2[nH]ncc2c1)c1ccc(C#N)cc1C [Compound 142, (E)-3-(4-((E)-2-(4-Cyano-2-methylphenyl)-1-(1H-indazol-5-yl)but-1-en-1-yl)phenyl)acrylic acid] | ≤ 100 nM | ≥ 40% |  | ++ (++ = a single % value ≧ 40%)
5 | CC/C(=C(/c1ccc(/C=C/C(=O)O)cc1)c1ccc2[nH]ncc2c1)c1cc(C#N)ccc1C [Compound 143, (E)-3-(4-((E)-2-(5-Cyano-2-methylphenyl)-1-(1H-indazol-5-yl)but-1-en-1-yl)phenyl)acrylic acid] | > 100 nM | ≥ 40% | ≤ 100 nM | ++ (++ = a single % value ≧ 40%)
6 | CC/C(=C(/c1ccc(/C=C/C(=O)O)cc1)c1ccc2[nH]ncc2c1)c1ccc(OC)cc1C#N [Compound 144, (E)-3-(4-((E)-2-(2-Cyano-4-methoxyphenyl)-1-(1H-indazol-5-yl)but-1-en-1-yl)phenyl)acrylic acid] | ≤ 100 nM | ≥ 40% | ≤ 100 nM | ++ (++ = a single % value ≧ 40%)

Continued, in another order:

Row | IC50 (MCF-7 cells) | Emax (ER-α) | DC50 (ER-α) | Structure (SMILES) | MCF7 Viability Assay Max Response (MCF-7 cells)
7 | ≤ 100 nM | ≥ 40% | ≤ 100 nM | CC/C(=C(/c1ccc(/C=C/C(=O)O)cc1)c1ccc2c(cnn2C)c1)c1ccccc1Cl [Compound 145, (E)-3-(4-((E)-2-(2-Chlorophenyl)-1-(1-methyl-1H-indazol-5-yl)but-1-en-1-yl)phenyl)acrylic acid] | ++ (++ = a single % value ≧ 40%)
8 | ≤ 100 nM | ≥ 40% | ≤ 100 nM | Cn1ncc2cc(/C(=C(/c3ccccc3)C3CCC3)c3ccc(/C=C/C(=O)O)cc3)ccc21 [Compound 146, (E)-3-(4-((E)-2-Cyclobutyl-1-(1-methyl-1H-indazol-5-yl)-2-phenylvinyl)phenyl)acrylic acid] | ++ (++ = a single % value ≧ 40%)
9 | ≤ 100 nM | ≥ 40% | ≤ 100 nM | CC/C(=C(/c1ccc(/C=C/C(=O)O)cc1)c1ccc2c(cnn2C)c1)c1ccc(F)cc1Cl [Compound 147, (E)-3-(4-((E)-2-(2-Chloro-4-fluorophenyl)-1-(1-methyl-1H-indazol-5-yl)but-1-en-1-yl)phenyl)acrylic acid] | ++ (++ = a single % value ≧ 40%)
10 | ≤ 100 nM | ≥ 40% | ≤ 100 nM | CC/C(=C(/c1ccc(/C=C/C(=O)O)cc1)c1ccc2c(cnn2C(F)F)c1)c1ccc(F)cc1Cl [Compound 148, (E)-3-(4-((E)-2-(2-Chloro-4-fluorophenyl)-1-(1-(difluoromethyl)-1H-indazol-5-yl)but-1-en-1-yl)phenyl)acrylic acid] | ++ (++ = a single % value ≧ 40%)
